“And” between values parts separate entries of the source, which are not always exact repeats. Identical values can stand only once.
Target: SARS-CoV-2 3CL protease (Severe acute respiratory syndrome coronavirus 2, UniProt P0DTD1)
Test: biochemical
Conditions: IC50

SMILES	IC50
O=c1[nH]cccc1Cn1c(=O)nc(NC2CCc3[nH]ncc3C2)n(Cc2cc(F)c(F)c(F)c2)c1=O (racemic) [Compound I-0208]	230 nM and 100 to 1000 nM
COc1ccc(Nc2nc(=O)n(Cc3ccc[nH]c3=O)c(=O)n2C2CCCc3cc(F)c(F)cc32)cc1 (racemic) [Compound I-0257]	2900 nM
COc1ccc(Nc2nc(=O)n(Cc3ccc[nH]c3=O)c(=O)n2C2CCc3cc(F)c(F)cc32)cc1 (racemic) [Compound I-0258]	3500 nM and 1000 to 10000 nM
Cc1c[nH]nc1[C@@H]1C[C@H]1Nc1nc(=O)n(Cc2ccc[nH]c2=O)c(=O)n1Cc1cc(F)c(F)c(F)c1 (racemic) [II-0373]	430 nM
O=c1[nH]cccc1Cn1c(=O)nc(Nc2ccc(F)cc2Cl)n(Cc2cc(F)c(F)c(F)c2)c1=O [Compound I-0001]	100 to 1000 nM
Cc1nc2cc(Cl)c(Nc3nc(=O)n(Cc4ccc[nH]c4=O)c(=O)n3Cc3cc(F)cc(Cl)c3)cc2n1C [Compound I-0005]	< 100 nM
Cc1nc2cc(Cl)c(Nc3nc(=O)n(Cc4ccc[nH]c4=O)c(=O)n3Cc3cc(F)c(F)cc3F)cc2n1C [Compound I-0006]	< 100 nM
Cc1nc2cc(Cl)c(Nc3nc(=O)n(Cc4ccc[nH]c4=O)c(=O)n3Cc3cc(F)c(F)c(C#N)c3)cc2n1C [Compound I-0010]	< 100 nM
O=c1[nH]cccc1Cn1c(=O)nc(Nc2ccc(O)cc2)n(Cc2cc(F)c(F)c(F)c2)c1=O [Compound I-0027]	< 100 nM
Cc1cc(Oc2ccc(Nc3nc(=O)n(Cc4ccc[nH]c4=O)c(=O)n3Cc3cc(F)c(F)c(F)c3)cc2)no1 [Compound I-0048]	440 nM and 100 to 1000 nM
COc1ccc(Nc2nc(=O)n(Cc3ccc[nH]c3=O)c(=O)n2Cc2cc(F)c(F)c(F)c2)c(O)c1 [Compound I-0056]	< 100 nM
CN(C)C(=O)c1ccc(Cn2c(=O)nc(Nc3cc4cn(C)nc4cc3Cl)n(Cc3cc(F)c(F)c(F)c3)c2=O)c(=O)[nH]1 [Compound I-0063]	< 100 nM
COc1ccc(Nc2nc(=O)n(Cc3ccc(C(=O)N(C)C)[nH]c3=O)c(=O)n2Cc2cc(F)c(F)c(F)c2)cc1 [Compound I-0072]	< 100 nM
COc1ccc(Nc2nc(=O)n(Cc3ccc(C(=O)NCCN(C)C)[nH]c3=O)c(=O)n2Cc2cc(F)c(F)c(F)c2)cc1 [Compound I-0074]	< 100 nM
Cc1nc2cc(Cl)c(Nc3nc(=O)n(Cc4cc(Cl)c[nH]c4=O)c(=O)n3Cc3cc(F)c(F)c(F)c3)cc2n1C [Compound I-0078]	< 100 nM
COc1ccc(Nc2nc(=O)n(Cc3cc4ccncc4[nH]c3=O)c(=O)n2Cc2cc(F)c(F)c(F)c2)cc1 [Compound I-0080]	< 100 nM
COc1ccc(Nc2nc(=O)n(Cc3c[nH]ccc3=O)c(=O)n2Cc2cc(F)c(F)c(F)c2)cc1 [Compound I-0083]	1800 nM and 1000 to 10000 nM
CNC(=O)c1c[nH]c(=O)c(Cn2c(=O)nc(Nc3ccc(OC)cc3)n(Cc3cc(F)c(F)c(F)c3)c2=O)c1 [Compound I-0087]	< 100 nM
COc1ccc(Nc2nc(=O)n(Cc3cc(C(N)=O)c[nH]c3=O)c(=O)n2Cc2cc(F)c(F)c(F)c2)cc1 [Compound I-0088]	< 100 nM
COc1ccc(Nc2nc(=O)n(Cc3cc(C(=O)O)c[nH]c3=O)c(=O)n2Cc2cc(F)c(F)c(F)c2)cc1 [Compound I-0089]	< 100 nM
COc1ccc(Nc2nc(=O)n(Cc3cc(C(=O)NCCN(C)C)c[nH]c3=O)c(=O)n2Cc2cc(F)c(F)c(F)c2)cc1 [Compound I-0092]	< 100 nM
COCCOc1ccc(Nc2nc(=O)n(Cc3ccc[nH]c3=O)c(=O)n2Cc2cc(F)c(F)c(F)c2)c(Cl)c1 [Compound I-0096]	< 100 nM

SMILES	IC50
Cn1cnc2cc(Cl)c(Nc3nc(=O)n(Cc4ccc[nH]c4=O)c(=O)n3Cc3cc(F)c(F)c(F)c3)cc2c1=O [Compound I-0097]	< 100 nM
O=c1[nH]cccc1Cn1c(=O)nc(Nc2cc3nccnc3cc2Cl)n(Cc2cc(F)c(F)c(F)c2)c1=O [Compound I-0098]	< 100 nM
COc1ccc(Nc2nc(=O)n(Cc3c[nH]c(=O)[nH]c3=O)c(=O)n2Cc2cc(F)c(F)c(F)c2)cc1 [Compound I-0099]	< 100 nM
COc1ccc(Nc2nc(=O)n(Cc3cc(=O)[nH][nH]c3=O)c(=O)n2Cc2cc(F)c(F)c(F)c2)cc1 [Compound I-0102]	850 nM and 100 to 1000 nM
COc1ccc(Nc2nc(=O)n(Cc3c[nH]c(=S)[nH]c3=O)c(=O)n2Cc2cc(F)c(F)c(F)c2)cc1 [Compound I-0103]	< 100 nM
COc1ccc(Nc2nc(=O)n(Cc3cc(-c4cn(C)cn4)c[nH]c3=O)c(=O)n2Cc2cc(F)c(F)c(F)c2)cc1 [Compound I-0105]	< 100 nM
COc1ccc(Nc2nc(=O)n(Cc3nc(Br)c[nH]c3=O)c(=O)n2Cc2cc(F)c(F)c(F)c2)cc1 [Compound I-0106]	1900 nM and 1000 to 10000 nM
Cn1cc2cc(Nc3nc(=O)n(Cc4ccc[nH]c4=O)c(=O)n3Cc3cc(F)c(F)c(F)c3)ccc2n1 [Compound I-0143]	< 100 nM
Cn1cnc2ccc(Nc3nc(=O)n(Cc4ccc[nH]c4=O)c(=O)n3Cc3cc(F)c(F)c(F)c3)cc21 [Compound I-0144]	< 100 nM
CNC(=O)c1ccc(Nc2nc(=O)n(Cc3ccc[nH]c3=O)c(=O)n2Cc2cc(F)c(F)c(F)c2)cc1 [Compound I-0149]	3500 nM and 1000 to 10000 nM
CS(=O)(=O)Nc1ccc(Nc2nc(=O)n(Cc3ccc[nH]c3=O)c(=O)n2Cc2cc(F)c(F)c(F)c2)cc1 [Compound I-0151]	970 nM and 100 to 1000 nM
O=c1[nH]cccc1Cn1c(=O)nc(Nc2ccc(-c3cc[nH]n3)cc2)n(Cc2cc(F)c(F)c(F)c2)c1=O [Compound I-0154]	1300 nM and 1000 to 10000 nM
O=c1[nH]cccc1Cn1c(=O)nc(NC2CCCC2)n(Cc2cc(F)c(F)c(F)c2)c1=O [Compound I-0204]	610 nM and 100 to 1000 nM
CO[C@H]1C[C@H](Nc2nc(=O)n(Cc3ccc[nH]c3=O)c(=O)n2Cc2cc(F)c(F)c(F)c2)C1 [Compound I-0207]	1900 nM and 1000 to 10000 nM
COc1ccc(Nc2nc(=O)n(Cc3ccc[nH]c3=O)c(=O)n2Cc2nc3ccccc3s2)cc1 [Compound I-0223]	4300 nM and 1000 to 10000 nM
COc1ccc(Nc2nc(=O)n(Cc3ccc[nH]c3=O)c(=O)n2Cc2cc(F)cc(C#N)c2)cc1 [Compound I-0234]	< 100 nM
Cn1cc(Nc2nc(=O)n(Cc3ccc[nH]c3=O)c(=O)n2Cc2cc(F)c(F)c(F)c2)c(Cl)cc1=O [Compound I-0244]	< 100 nM
O=c1cc(Cl)c(Nc2nc(=O)n(Cc3ccc[nH]c3=O)c(=O)n2Cc2cc(F)c(F)c(F)c2)c[nH]1 [Compound I-0246]	< 100 nM
COc1ccc(Nc2nc(=O)n(Cc3cc(-c4cnn(C)c4)c[nH]c3=O)c(=O)n2Cc2cc(F)c(F)c(F)c2)cc1 [Compound I-0259]	< 100 nM
Cc1nc2cc(Cl)c(Nc3nc(=O)n(Cc4ccc[nH]c4=O)c(=O)n3Cc3cc(F)c(F)c(F)c3F)cc2n1C [Compound I-0265]	< 100 nM
Cc1nc2cc(Cl)c(Nc3nc(=O)n(Cc4ccc[nH]c4=O)c(=O)n3Cc3ccc(F)c(C#N)c3)cc2n1C [Compound I-0266]	< 100 nM
Cn1cc2cc(Nc3nc(=O)n(Cc4ccc[nH]c4=O)c(=O)n3Cc3cc(F)cc(C#N)c3)c(Cl)cc2n1 [Compound I-0268]	< 100 nM

SMILES	IC50
Cn1cc2cc(Nc3nc(=O)n(Cc4cc(F)c[nH]c4=O)c(=O)n3Cc3ccc(F)c(C#N)c3)c(Cl)cc2n1 [Compound I-0270]	< 100 nM
CS(=O)(=O)CCCn1cc2cc(Nc3nc(=O)n(Cc4ccc[nH]c4=O)c(=O)n3Cc3cc(F)c(F)c(F)c3)c(Cl)cc2n1 [Compound I-0287]	< 100 nM
CC(=O)N1CC(n2cc3cc(Nc4nc(=O)n(-c5cncc6ccccc56)c(=O)n4Cc4cc(F)c(F)c(F)c4)c(Cl)cc3n2)C1 [Compound I-0289]	< 100 nM
COc1ccc(Nc2cc(=O)n(Cc3ccc[nH]c3=O)c(=O)n2Cc2cc(F)c(F)c(F)c2)cc1 [Compound I-0326]	65 nM
Cn1cc2cc(Nc3nc(=O)n(Cc4cc(C(=O)NC5CC5)c[nH]c4=O)c(=O)n3Cc3cc(F)c(F)c(F)c3)c(Cl)cc2n1 [Compound I-0333]	< 100 nM
COc1ccc(Nc2nc(=O)n(Cc3cc(C)on3)c(=O)n2Cc2cc(F)c(F)c(F)c2)cc1 [Compound I-0334]	870 nM and 100 to 1000 nM
COc1ccc(Nc2nc(=O)n(Cc3cc(C)[nH]n3)c(=O)n2Cc2cc(F)c(F)c(F)c2)cc1 [Compound I-0340]	840 nM and 100 to 1000 nM
N#Cc1cc(Cn2c(Nc3ccc4c(c3)CCO4)nc(=O)n(-c3cncc(CO)c3)c2=O)ccc1F [Compound I-0356]	< 100 nM
CN(C)C(=O)Cn1cc2cc(Nc3nc(=O)n(Cc4ccc[nH]c4=O)c(=O)n3Cc3cc(F)c(F)c(F)c3)c(Cl)cc2n1 [Compound I-0367]	< 100 nM
O=c1[nH]cccc1Cn1c(=O)nc(Nc2ccc(OCCO)cc2Cl)n(Cc2cc(F)c(F)c(F)c2)c1=O [Compound I-0371]	< 100 nM
COc1ccc(Nc2nc(=O)n(Cc3cc(-c4cccnc4)c[nH]c3=O)c(=O)n2Cc2cc(F)c(F)c(F)c2)cc1 [Compound I-0386]	< 100 nM
O=c1[nH]cccc1Cn1c(=O)nc(Nc2ccc(-c3cocn3)cc2Cl)n(Cc2cc(F)c(F)c(F)c2)c1=O [Compound I-0396]	3100 nM and 1000 to 10000 nM
O=C1OCCN1c1ccc(Nc2nc(=O)n(Cc3ccc[nH]c3=O)c(=O)n2Cc2cc(F)c(F)c(F)c2)c(Cl)c1 [Compound I-0397]	730 nM and 100 to 1000 nM
CCc1nc2cc(Cl)c(Nc3nc(=O)n(Cc4ccc[nH]c4=O)c(=O)n3Cc3cc(F)c(F)c(F)c3)cc2n1C [Compound I-0399]	< 100 nM
COc1ccc(Nc2nc(=O)n(Cc3cnc(C)[nH]c3=O)c(=O)n2Cc2cc(F)c(F)c(F)c2)cc1 [Compound I-0403]	310 nM and 100 to 1000 nM
Cn1cc2cc(Nc3nc(=O)n(Cc4c[nH]c(=O)[nH]c4=O)c(=O)n3Cc3cc(F)c(F)c(F)c3)c(Cl)cc2n1 [Compound I-0405]	< 100 nM
Cc1nc2cc(Cl)c(Nc3nc(=O)n(Cc4c[nH]c(=O)[nH]c4=O)c(=O)n3Cc3cc(F)c(F)c(F)c3)cc2n1C [Compound I-0407]	< 100 nM
COc1ccc(Nc2nc(=O)n(Cc3cn(-c4ccccc4)cn3)c(=O)n2Cc2cc(F)c(F)c(F)c2)cc1 [Compound I-0412]	5100 nM and 1000 to 10000 nM
COC(=O)Cn1cnc(Cn2c(=O)nc(Nc3ccc(OC)cc3)n(Cc3cc(F)c(F)c(F)c3)c2=O)c1 [Compound I-0414]	250 nM and 100 to 1000 nM
COc1ccc(Nc2nc(=O)n(Cc3cn(CCO)cn3)c(=O)n2Cc2cc(F)c(F)c(F)c2)cc1 [Compound I-0415]	3000 nM and 1000 to 10000 nM
COc1ccc(Nc2nc(=O)n(Cc3cn(CC(N)=O)cn3)c(=O)n2Cc2cc(F)c(F)c(F)c2)cc1 [Compound I-0416]	3500 nM and 1000 to 10000 nM

— patent US12559474B2, “Triazine derivatives having virus replication inhibitory activity and pharmaceutical composition comprising the same” (priority 2021, dated 2026)
